In US20100234381A1, “BIOMARKERS AND METHODS FOR DETERMINING SENSITIVITY TO VASCULAR ENDOTHELIAL GROWTH FACTOR RECEPTOR-2 MODULATORS” (Bristol-Myers Squibb Company, priority 2007, published 2010):
“Also recorded” adds a separate entry of the source.

Legend:
Assay type in all cases: cell-based
[1] = test system: GEO colon cancer cells; assay: VEGF-induced proliferation of GEO colon cancer cells (modified MTS assay); details: VEGF 2.5 ng/ml; 72 hours
Experimental: Cell Culture-GEO colon cancer cell line was routinely maintained in RPMI 1640 (Cellgro, Virginia) with 1% fetal bovine serum (Cellgro, Virginia) at 37° C. in 5% carbon dioxide/95% air in the presence of 100 units/ml penicillin, 100 μg/ml streptomycin (Cellgro, Virginia). Cell proliferation was determined by a modified MTS assay with […] 96® Aqueous One Solution Reagent (Promega, Madison, Wis.). […] After 180 minutes incubation, the optical densities (OD) of these samples were directly measured using SPECTRAMAX® plus (Molecular Device, California) and reference wavelength of 490 nm. […] Cell proliferation was determined by a modified MTS assay with […] […] After 180 minutes incubation, the optical densities (OD) of these samples were directly measured using SPECTRAMAX® plus (Molecular Device, California) and reference wavelength of 490 nm. […] […]

[2] = test system: MIAPAC-2 pancreatic cancer cells; assay: FGF2-induced proliferation of MIAPAC-2 pancreatic cancer cells (modified MTS assay)
Experimental: (§1) Cell proliferation was determined by a modified MTS assay with […] 96® Aqueous One Solution Reagent (Promega, Madison, Wis.). A2780 ovarian cancer cells, MIAPAC-2 pancreatic cancer cells, or GEO colon cancer cells were seeded on 96-well flat-bottomed tissue culture plates (Becton Dickinson, San Jose, Calif.) at a concentration of 3×10^3 cells/well in RPMI 1640 with 1% fetal bovine serum at 37° C. in 5% carbon dioxide/95% air in the presence of 100 units/ml penicillin, 100 μg/ml streptomycin and allowed to adhere to the plate overnight. Then the cells were incubated in the presence of each concentration of 0 (control), 0.3, 0.6, 1.25, 2.5, 5, 10 ng/ml of FGF2 or VEGF for another 72 hours at 37° C. in a humidified atmosphere of 5% CO2 in air. After treatment, 20 μl of […] 96® Aqueous One Solution Reagent was dropped into each well of plates. After 180 minutes incubation, the optical densities (OD) of these samples were directly measured using SPECTRAMAX® plus (Molecular Device, California) and reference wavelength of 490 nm. The OD of control samples was regarded as 100. Each condition was performed with 4 wells and experiment was repeated twice.

[3] = test system: A2780 ovarian cancer cells; assay: FGF2-induced proliferation of A2780 ovarian cancer cells (modified MTS assay)
Experimental: as §1

[4] = test system: FGF2-stimulated cancer cell lines; assay: FGF2-stimulated tumor cell proliferation, panel of cancer cell lines; details: following FGF2 stimulation
[5] = test system: FGF2-stimulated cancer cell lines; assay: as above; details: for Brivanib-resistant (>3 μM) cell lines, number / Brivanib-sensitive (≦3 μM) cell lines, number: following FGF2 stimulation
Experimental: […], GEO, L2987, 786-0, A549, A498, Du145, PANC-1, ACHN, HT1197, CALU6, SKOV3, 769-[…], HCT166 and UMUC3. […] Gene expression profiling was performed on RNA samples from tumor cell lines using AFFYMETRIX® GeneChip System.

IC50 ([2]; pancreatic cancer cell line MIAPAC-2, read-out: IC50, FGF2-induced cell growth): < 500 nM
IC50 ([3]; ovarian cancer cell line A2870, read-out: IC50, FGF2-induced cell growth): < 1000 nM
Substance: [(1R),2S]-2-Aminopropionic acid 2-[4-(4-fluoro-2-methyl-1H-indol-5-yloxy)-5-methylpyrrolo[2,1-f][1,2,4]triazin-6-yloxy]-1-methylethyl ester [brivanib]
inhibition of VEGF-induced cellular proliferation in GEO cells [1]: did not potently inhibit
effect on FGF2-induced cellular proliferation ([2]; MIAPAC-2 pancreatic cancer cells): potently inhibited; also recorded: inhibits ovarian cancer and pancreatic cancer cell line growth directly
inhibition of FGF2-induced cell growth ([2]; pancreatic cancer cell line MIAPAC-2): > 50%
effect on FGF2-induced cellular proliferation ([3]; A2780 ovarian cancer cells): potently inhibited; also recorded: inhibits ovarian cancer and pancreatic cancer cell line growth directly
inhibition of FGF2-induced cell growth ([3]; ovarian cancer cell line A2870): > 50%
Brivanib-resistant (>3 μM) cell lines, number ([4]; Colon cell lines): 3
Brivanib-resistant (>3 μM) cell lines, number ([4]; NSCLC cell lines): 1
Brivanib-resistant (>3 μM) cell lines, number ([4]; Ovarian cell lines): 1
Brivanib-sensitive (≦3 μM) cell lines, number ([4]; Ovarian cell lines): 1
Brivanib-resistant (>3 μM) cell lines, number ([4]; Pancreatic cell lines): 1
Brivanib-sensitive (≦3 μM) cell lines, number ([4]; Pancreatic cell lines): 1
Brivanib-sensitive (≦3 μM) cell lines, number ([4]; Prostate cell lines): 1
Brivanib-resistant (>3 μM) cell lines, number ([4]; Renal cell lines): 1
Brivanib-sensitive (≦3 μM) cell lines, number ([4]; Renal cell lines): 3
Brivanib-sensitive (≦3 μM) cell lines, number ([4]; Total of cell lines): 9
Brivanib-resistant (>3 μM) cell lines, number ([5]; Bladder cell lines): 2
Brivanib-sensitive (≦3 μM) cell lines, number ([5]; Bladder cell lines): 1
Brivanib-sensitive (≦3 μM) cell lines, number ([5]; Colon cell lines): 0
Brivanib-sensitive (≦3 μM) cell lines, number ([5]; NSCLC cell lines): 2
Brivanib-resistant (>3 μM) cell lines, number ([5]; Prostate cell lines): 1
Brivanib-resistant (>3 μM) cell lines, number ([5]; Total of cell lines): 10
inhibition of FGF2-induced tumor cell proliferation ([5]; panel of cancer cell lines, in vitro): inhibited FGF2-induced tumor cell proliferation in 16 cancer cell lines; also recorded: inhibits FGF2-induced tumor cell line growth with much lower IC50 values than sunitinib
